SMILES strings stand for the structures.

We go through three compounds from publication PMC11584170 (ACS chemical biology, 2023).

In one data set the target is T1, ERRγ (Homo sapiens, UniProt P62508).
T1 sequence (P62508 1-458): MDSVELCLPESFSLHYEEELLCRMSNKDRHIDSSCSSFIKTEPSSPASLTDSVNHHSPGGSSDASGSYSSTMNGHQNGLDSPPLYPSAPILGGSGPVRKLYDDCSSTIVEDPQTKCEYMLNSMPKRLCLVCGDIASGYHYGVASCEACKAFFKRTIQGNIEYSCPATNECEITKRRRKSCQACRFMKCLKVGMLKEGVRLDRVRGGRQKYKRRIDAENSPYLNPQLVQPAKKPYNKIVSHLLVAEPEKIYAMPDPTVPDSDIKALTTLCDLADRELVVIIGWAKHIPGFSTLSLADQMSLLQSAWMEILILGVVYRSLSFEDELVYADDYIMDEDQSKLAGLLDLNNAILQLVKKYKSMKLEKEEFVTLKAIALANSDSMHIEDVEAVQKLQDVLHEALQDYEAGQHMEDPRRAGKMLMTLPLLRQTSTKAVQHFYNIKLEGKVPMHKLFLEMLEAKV
The data set can be described thus: full-length ERR cell-based cotransfection/reporter assay in HEK293 cells. The conditions noted are these: full-length ERR cotransfection. (In a reporter assay the amount or activity of a reporter protein is the signal.)

Another data set deals with T2, ERRα (Homo sapiens, UniProt P11474).
T2 sequence (P11474 1-423): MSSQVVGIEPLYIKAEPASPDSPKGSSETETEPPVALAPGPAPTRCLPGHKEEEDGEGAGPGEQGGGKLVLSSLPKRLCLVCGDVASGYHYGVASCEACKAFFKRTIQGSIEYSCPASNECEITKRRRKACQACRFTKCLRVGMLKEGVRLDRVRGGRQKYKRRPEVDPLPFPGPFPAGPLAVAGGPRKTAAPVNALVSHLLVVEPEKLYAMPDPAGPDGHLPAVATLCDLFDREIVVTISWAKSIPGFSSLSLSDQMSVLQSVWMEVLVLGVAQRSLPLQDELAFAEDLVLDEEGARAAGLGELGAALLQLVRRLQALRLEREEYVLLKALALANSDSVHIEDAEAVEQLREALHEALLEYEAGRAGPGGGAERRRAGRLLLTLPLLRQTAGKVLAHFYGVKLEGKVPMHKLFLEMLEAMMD
The description is as above.

In the next data set the target is T3, ERRβ (Homo sapiens, UniProt O95718).
T3 sequence (O95718 1-433): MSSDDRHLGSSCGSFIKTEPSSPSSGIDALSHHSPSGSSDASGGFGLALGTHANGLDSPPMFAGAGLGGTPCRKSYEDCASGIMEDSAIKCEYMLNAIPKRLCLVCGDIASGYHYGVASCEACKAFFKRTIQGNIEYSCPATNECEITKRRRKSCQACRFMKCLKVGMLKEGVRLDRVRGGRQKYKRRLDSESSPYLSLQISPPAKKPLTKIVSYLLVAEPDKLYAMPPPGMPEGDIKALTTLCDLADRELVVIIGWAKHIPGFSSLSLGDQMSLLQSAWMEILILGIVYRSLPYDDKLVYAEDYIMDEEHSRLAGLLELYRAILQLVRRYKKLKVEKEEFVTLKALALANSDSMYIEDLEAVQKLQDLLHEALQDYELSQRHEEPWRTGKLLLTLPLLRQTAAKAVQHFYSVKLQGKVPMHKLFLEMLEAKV
Described as above. The note with it: read-out: ERRβ EC50.

Another data set deals with Gal4-ERR LBD. The data set can be described thus: Gal4-ERR LBD chimeric cotransfection assay. The data set is classed as cell-based.
The next data set has as its target T4, ERRγ LBD (Homo sapiens, UniProt P62508).
T4 sequence (P62508 233-457 limits assumed): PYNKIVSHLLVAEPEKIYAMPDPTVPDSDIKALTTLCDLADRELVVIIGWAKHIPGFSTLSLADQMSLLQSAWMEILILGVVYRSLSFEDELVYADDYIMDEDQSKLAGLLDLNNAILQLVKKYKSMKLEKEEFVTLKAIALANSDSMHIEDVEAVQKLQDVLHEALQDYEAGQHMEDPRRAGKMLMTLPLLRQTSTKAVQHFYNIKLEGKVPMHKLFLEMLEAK
The experiment in a line: differential scanning fluorimetry. The note with it: direct binding. On the technique in general: In DSF a fluorescence change marks the thermal transition of the protein.

Data set [1] concerns C2C12 cells. The experiment in a line: ERR target gene. It is filed as cell-based, mouse. The conditions noted are these: C2C12, 24 h dose-response.
Data set [2] has as its system C2C12 cells. The data set can be described thus: MitoTracker Red staining of C2C12 cells. It is filed as cell-based, mouse. The conditions noted are these: proliferating C2C12, 10 μM, 24 h.
The nature of data set [3]: tolerability in mice, 10 days dosing. It is filed as in vivo.
A further data set deals with C57BL/6J mice. The experiment in a line: chronic treatment, skeletal muscle histology and protein/gene expression. The data set is classed as in vivo.
For the next data set, the system named is C57BL6/J mice. The data set can be described thus: exercise until exhaustion on rodent treadmill, WT mice. The data set is classed as in vivo. The note with it: sedentary mice, 7 days b.i.d. i.p. 50 mg/kg, run to exhaustion.
Data set [4] relates to mice. The experiment in a line: grip strength test. The data set is classed as in vivo. The note with it: sedentary mice, 50 mg/kg, 2 weeks.
The test system of data set [5] is mice. The experiment in a line: circadian locomotor activity. The note with it: drug treatment. The data set is classed as in vivo.
The test system of the next data set is C57BL/6J male mice. The data set can be described thus: acute single dose, Ddit4 and Slc25a25 expression in skeletal muscle. It is filed as in vivo.
Data set [6] has as its system C2C12 cells. The experiment in a line: Ddit4 gene expression in C2C12 myoblast cell line. The conditions noted are these: C2C12, 10 μM, 1 or 3 h. The data set is classed as cell-based, mouse.
The test system of the next data set is primary mouse myocytes. The experiment in a line: Ddit4 and Slc25a25 expression in primary myocytes. It is filed as cell-based.
Data set [7] relates to mERRα fl/fl and mERRα−/− mice. The data set can be described thus: exercise endurance in muscle-specific ERRα KO mice. The data set is classed as in vivo.
For data set [8] the following is noted: model of heart failure ref 38; cited from earlier work.
Setting [9] is: 50 mg/kg b.i.d., gastrocnemius muscle.
Where [10] appears, read: 14 days b.i.d., i.p, 50 mg/kg, exercise until exhaustion.
The mark [11] stands for this setting: quadricep, not induced in mERRα−/−.

Regarding `CC/C(=C(\c1ccc(O)cc1)c1ccc(OCCN(C)C)cc1)c1ccccc1` [4-hydroXytamoXifen], the “inhibition of ERRγ constitutive activity” value against ERRγ is reported as about 75%.

As a reminder, the EC50 is the concentration at which the effect is half-maximal. Regarding `CC(C)c1ccc(/C=N/NC(=O)c2ccc(O)cc2)cc1` [GSK4716], the ERRα agonist activity result at ERRα (ERR cotransfection assay) was “very weak agonist activity”. For the same compound, the EC50 is over 5 µM on ERRα (read-out: ERRα EC50, full-length ERR, HEK293) and over 5 µM at ERRβ.

For `O=C(N/N=C/c1ccc2ccccc2c1)c1ccc(O)cc1` [SLU-PP-332, (E)-4-Hydroxy-N′-(naphthalen-2-ylmethylene)benzohydrazide], in the data set with Gal4-ERR LBD, the “activity at ERRs” value is reported as “displayed activity at all ERRs”. Further, the “thermal stability of purified ERRγ LBD” value on ERRγ LBD is “dose-dependently increased the thermal stability”. Further, the “expression of Pdk4” value with C2C12 cells [1] is listed as “clear increase”. Further, the “mitochondrial biogenesis (MitoTracker Red)” value with C2C12 cells [2] is recorded as “substantially induced”. Further, in [3] (50 mg/kg b.i.d., i.p., 10 days), the “complete blood count and electrolyte levels” value is “normal”; the overt toxicity entry is recorded as “no overt toxicity”. For the same compound, the serum creatine kinase result in data set [3] (skeletal muscle toxicity marker) is listed as “no significant alterations”. For the same compound, in the data set with C57BL/6J mice (50 mg/kg b.i.d. i.p., 15 days, quadricep), the “oxidative muscle phenotype (SDH staining)” value is recorded as “greater SDH staining”. For the same compound, the “myofiber diameter (laminin staining)” value in the data set on C57BL/6J mice (50 mg/kg b.i.d., 15 days) is on record as “smaller in diameter”. In the data set on C57BL/6J mice (setting [9]), the “complex I (NDUFB8) and complex V (ATP5A) expression” value was “increase”; the “cytochrome c protein expression” value is “increase”. Further, in the data set on C57BL/6J mice (quadriceps), the “Myosin IIA protein (western blot)” value was “increased expression” and the “expression of Myh6” value is given as “increase”. The “oxidative type IIa muscle fibers” value in the data set with C57BL/6J mice (quadriceps, 50 mg/kg b.i.d.) was “increased”. Besides, in the data set on C57BL/6J mice (vs vehicle-treated), the “mitochondria content (electron micrographs of quadriceps)” value is listed as “increase”. For the same compound, in the data set on C57BL6/J mice, the “increase in running distance vs vehicle” value is about 45% and the “increase in running time vs vehicle” value is on record as about 70%. Besides, the grip strength result in the data set with mice [4] was “increase”. In addition, the circadian locomotor activity entry in the data set with mice [5] is recorded as “no alterations”. Also, the “DDIT4 protein expression level” value with C57BL/6J male mice (quadricep muscle, 3 h post 50 mg/kg i.p.) turned out to be 3.5 ×. In addition, the “increase in Ddit4 expression” value in the data set with C57BL/6J male mice (sedentary mice, single dose 50 mg/kg i.p., 1 h) was about 3 fold. In addition, the “increase in Ddit4 expression, drug plus exercise” value in the data set on C57BL/6J male mice (single dose 50 mg/kg i.p. and treadmill run, 1 h) is listed as about 11 fold. The “increase in Slc25a25 expression” value with C57BL/6J male mice (single dose 50 mg/kg i.p., 1 h) was 11 fold. Moreover, the Ddit4 gene expression entry in the data set on C2C12 cells [6] was “induced”. Moreover, in the data set with primary mouse myocytes (1 μM, 2 h), the “effect on Ddit4 expression in ERRα or ERRα/γ null myocytes” value is “lost” and the “effect on Ddit4 expression in ERRγ null myocytes” value is reported as “retained”. For the same compound, the “Ddit4 expression, 2 h” value in the data set on primary mouse myocytes (primary mouse myocytes, 1 μM, 2 h) is reported as “induced”. Besides, the “Ddit4 induction, 24 h” value in the data set with primary mouse myocytes (primary mouse myocytes, 1 μM, 24 h) was “not observed”. Moreover, the “expression of Slc25a25” value with primary mouse myocytes (primary myocytes, 1 μM, 2 h) is recorded as “induced”. The “ERRα dependence of Slc25a25 responsiveness” value in the data set with primary mouse myocytes (primary myocytes, WT vs KO) is given as “completely ERRα-dependent”. For the same compound, in [7] (setting [10]), the “exercise endurance, mERRα fl/fl mice” value is recorded as “significantly enhanced exercise endurance” and the “exercise endurance, mERRα−/− mice” value is listed as “equivalent to vehicle-treated”. Further, the “upregulation of Ddit4 in quadriceps” value in data set [7] (mERRα fl/fl vs mERRα−/− mice) is reported as “observed only in mERRα^fl/fl”. Further, in [7] (setting [11]), the “Alas2 expression, mERRα fl/fl mice” value is on record as “significantly induced” and the “Per1 expression, mERRα fl/fl mice” value is “significantly induced”. Further, in [8], the improving heart function entry is on record as “very effective”.
